Experimental data reported in ChEMBL document CHEMBL5352456, “Isocyanides in med chem: A scaffold hopping approach for the identification of novel 4-isocyanophenylamides as potent antibacterial agents against methicillin-resistant Staphylococcusaureus” (Eur J Med Chem, 2023).
≈ marks a conversion by molar mass, not a printed value. Calls of active or inactive are those of the source. No cut-off for these calls is given here.

Tests used:
[1] = test system: Staphylococcus epidermidis; assay: Antibacterial activity against Staphylococcus epidermidis ATCC 12228 assessed as reduction in microbial growth measured for 16 to 20 hrs by microdilution assay; type: functional; details: time 16-20 hrs
Escherichia coli = assay: Antibacterial activity against Escherichia coli ATCC 25922 assessed as inhibition of bacterial growth measured for 16 to 20 hrs by microdilution assay; type: functional; details: time 16-20 hrs
Staphylococcus aureus [2] = assay: Antibacterial activity against methicillin-resistant Staphylococcus aureus ATCC 33592 assessed as reduction in microbial growth measured for 16 to 20 hrs by microdilution assay; type: functional; details: time 16-20 hrs
Staphylococcus aureus [3] = assay: Antibacterial activity against Staphylococcus aureus ATCC 6538 assessed as reduction in microbial growth measured for 16 to 20 hrs by microdilution assay; type: functional; details: time 16-20 hrs
[4] = test system: Staphylococcus epidermidis; assay: Antibacterial activity against Staphylococcus epidermidis ATCC 35984 assessed as reduction in microbial growth measured for 16 to 20 hrs by microdilution assay; type: functional; details: time 16-20 hrs
[5] = test system: Staphylococcus epidermidis; assay: Antibacterial activity against Staphylococcus epidermidis ATCC 49134 assessed as reduction in microbial growth measured for 16 to 20 hrs by microdilution assay; type: functional; details: time 16-20 hrs
[6] = Metabolic stability in rat liver microsome assessed as parent compound remaining at 50 uM incubated for 1 hr in presence of NADPH regenerating system and GSH by LC-UV analysis; type: ADME; details: liver microsomes, read-out: Stability
Pseudomonas aeruginosa [7] = assay: Antibacterial activity against Pseudomonas aeruginosa ATCC 10145 assessed as inhibition of bacterial growth measured for 16 to 20 hrs by microdilution assay; type: functional; details: time 16-20 hrs
Staphylococcus aureus [8] = assay: Antibacterial activity against Staphylococcus aureus ATCC 29213 assessed as reduction in microbial growth measured for 16 to 20 hrs by microdilution assay; type: functional; details: time 16-20 hrs
Staphylococcus aureus [9] = assay: Antibacterial activity against methicillin-resistant Staphylococcus aureus ATCC 43300 assessed as reduction in microbial growth measured for 16 to 20 hrs by microdilution assay; type: functional; details: time 16-20 hrs
[10] = Metabolic stability in human plasma assessed as parent compound remaining at 50 uM incubated for 60 mins by LC-UV analysis; type: ADME, cell-free; details: read-out: Stability
Staphylococcus aureus [11] = assay: Antibacterial activity against Staphylococcus aureus ATCC 25923 assessed as reduction in microbial growth measured for 16 to 20 hrs by microdilution assay; type: functional; details: time 16-20 hrs
Klebsiella pneumoniae [12] = assay: Antibacterial activity against Klebsiella pneumoniae ATCC 700603 assessed as inhibition of bacterial growth measured for 16 to 20 hrs by microdilution assay; type: functional; details: time 16-20 hrs
Pseudomonas aeruginosa [13] = assay: Antibacterial activity against Pseudomonas aeruginosa assessed as inhibition of bacterial growth; type: functional
Acinetobacter baumannii = assay: Antibacterial activity against Acinetobacter baumannii assessed as inhibition of bacterial growth; type: functional
Staphylococcus aureus [14] = assay: Antibacterial activity against Staphylococcus aureus assessed as inhibition of bacterial growth; type: functional
Bacillus anthracis = assay: Antibacterial activity against Bacillus anthracis assessed as inhibition of bacterial growth; type: functional
Klebsiella pneumoniae [15] = assay: Antibacterial activity against Klebsiella pneumoniae assessed as inhibition of bacterial growth; type: functional
Staphylococcus aureus [16] = assay: Anti-biofilm activity in Staphylococcus aureus ATCC 6538 assessed as inhibition of biofilm formation upto 128 uM measured for 24 hrs by MTT assay; type: functional, organism-based
[17] = test system: Clavibacter michiganensis; assay: Antibacterial activity against Clavibacter michiganensis assessed as inhibition of bacterial growth; type: functional
Clostridium tetani = assay: Antibacterial activity against Clostridium tetani assessed as inhibition of bacterial growth; type: functional
Staphylococcus aureus [18] = assay: Antibacterial activity against methicillin-resistant Staphylococcus aureus ATCC 43300 assessed as reduction in microbial growth by microdilution assay; type: functional
HaCaT [19] = assay: Cytotoxicity against human HaCaT cells assessed as reduction in cell viability measured at 64 to 128 uM measured for 24 hrs by MTT assay; type: toxicity, cell-based; details: dose 64-128 µM
Staphylococcus aureus [20] = assay: Bactericidal activity against methicillin-resistant Staphylococcus aureus ATCC 43300 measured for 24 hrs by time kill assay; type: functional, organism-based
HaCaT [21] = assay: Cytotoxicity against human HaCaT cells assessed as reduction in cell viability measured at 128 uM measured for 24 hrs by MTT assay; type: toxicity, cell-based
Staphylococcus aureus [22] = assay: Antibacterial activity against Staphylococcus aureus ATCC 6538 assessed as reduction in cell surface hydrophobicity; type: functional, organism-based
Staphylococcus aureus [23] = assay: Resistance development in methicillin-resistant Staphylococcus aureus ATCC 43300 assessed as fold increase in MIC after 10 passage; type: functional
Staphylococcus aureus [24] = assay: Induction of cell membrane permeability in Staphylococcus aureus ATCC 6538; type: functional, organism-based
Osteoblast [25] = assay: Cytotoxicity against human Osteoblast cells assessed as reduction in cell viability measured at 128 uM measured for 24 hrs by MTT assay; type: toxicity, cell-based
Staphylococcus aureus [26] = assay: Anti-biofilm activity in Staphylococcus aureus ATCC 6538 assessed as inhibition of biofilm formation at 128 uM measured for 24 hrs by MTT assay; type: functional; parameters: scale not given: the % may be the effect or the level left
Staphylococcus aureus [27] = assay: Additive antibacterial activity against methicillin-resistant Staphylococcus aureus assessed as fractional inhibitory concentration index in presence of tetracycline by checker board method; type: functional
Staphylococcus aureus [28] = assay: Anti-biofilm activity in Staphylococcus aureus ATCC 6538 assessed as inhibition of biofilm formation at 16 uM measured for 24 hrs by MTT assay; type: functional; parameters: scale not given: the % may be the effect or the level left
Osteoblast [29] = assay: Cytotoxicity against human Osteoblast cells assessed as reduction in cell viability measured at 64 to 128 uM measured for 24 hrs by MTT assay; type: toxicity, cell-based; details: dose 64-128 µM
Staphylococcus aureus [30] = assay: Bactericidal activity against methicillin-resistant Staphylococcus aureus ATCC 43300 incubated for 24 hrs by time kill assay; type: functional

Row | Compound | MIC [1] | MIC (Escherichia coli) | MIC (Staphylococcus aureus [2]) | MIC (Staphylococcus aureus [3]) | MIC [4] | MIC [5] | MIC (Pseudomonas aeruginosa [7]) | MIC (Staphylococcus aureus [8]) | MIC (Staphylococcus aureus [9]) | MIC (Staphylococcus aureus [11]) | MIC (Klebsiella pneumoniae [12]) | further results
1 | [C-]#[N+]c1ccc(NC(=O)Cc2ccccc2)cc1 | 2 µM | ≥ 64 µM | > 8 µM | > 8 µM | 1 µM | 1 µM | ≥ 64 µM | > 8 µM | > 8 µM | 8 µM | ≥ 64 µM | remaining at 1 h, 50 µM [6]: 20%; remaining at 1 h, 50 µM [10]: > 99%
2 | [C-]#[N+]c1ccc(C(=O)NCc2ccccc2)cc1 |  | ≥ 64 µM |  | > 8 µM |  |  | ≥ 64 µM | > 8 µM |  | > 8 µM | ≥ 64 µM | remaining at 1 h, 50 µM [6]: 29%; remaining at 1 h, 50 µM [10]: 91%
3 | [C-]#[N+]C(=C)[C@@](Cc1ccc(OC)cc1)([N+]#[C-])[C@@H]1C[C@@H](OC(=O)CO)CC[C@@H]1O |  |  |  |  |  |  |  |  |  |  |  | MIC (Pseudomonas aeruginosa [13]): 0.52 µM (≈ 0.2 µg/mL); MIC (Acinetobacter baumannii): 0.52 µM (≈ 0.2 µg/mL)
4 | [C-]#[N+]/C(Cl)=C/C1(OC(C)=O)C(=O)Nc2ccccc21 (centres undefined) |  |  |  |  |  |  |  |  |  |  |  | MIC (Staphylococcus aureus [14]): 0.18 µM (≈ 0.0498 µg/mL); MIC (Bacillus anthracis): 0.7 µM (≈ 0.194 µg/mL); MIC (Klebsiella pneumoniae [15]): 0.7 µM (≈ 0.194 µg/mL)
5 | [C-]#[N+]c1ccc(NC(=O)c2ccncc2)cc1 |  | ≥ 64 µM |  | > 8 µM |  |  | ≥ 64 µM | > 8 µM |  | > 8 µM | ≥ 64 µM | remaining at 1 h, 50 µM [6]: 29%; remaining at 1 h, 50 µM [10]: > 99%
6 | COc1cc(Cc2cnc(N)nc2N)cc(OC)c1OC |  |  |  |  |  |  |  |  |  |  |  | Activity (Staphylococcus aureus [16]): inactive
7 | [C-]#[N+]C(=C\c1ccc(O)cc1)/C(=C/c1ccc2c(c1)CCC(C)(C)O2)[N+]#[C-] |  |  |  |  |  |  |  |  |  |  |  | MIC [17]: 0.87 µM (≈ 0.31 µg/mL)
8 | [C-]#[N+]C(=C\c1ccc(O)cc1)/C(=C/c1ccc(O)cc1)[N+]#[C-] [XANTOCILLIN] |  |  |  |  |  |  |  |  |  |  |  | MIC (Pseudomonas aeruginosa [13]): 0.69 µM (≈ 0.199 µg/mL); MIC (Acinetobacter baumannii): 0.25 µM (≈ 0.0721 µg/mL); MIC (Clostridium tetani): 0.69 µM (≈ 0.199 µg/mL)
9 | O=C(O)c1cn(C2CC2)c2cc(N3CCNCC3)c(F)cc2c1=O [CIPROFLOXACIN] | 0.38 µM |  | 0.75 µM | 0.38 µM | 0.19 µM | 0.38 µM |  | 0.75 µM | 0.75 µM | 0.75 µM |  | MIC (Staphylococcus aureus [18]): 1 µM
10 | [C-]#[N+]c1ccc(/C=C/c2ccccc2)cc1 | 2 µM |  | 8 µM | 8 µM | 1 µM | 1 µM |  | 8 µM | 8 µM | 4 µM |  | Activity (HaCaT [19]): Non-Toxic; Activity (Staphylococcus aureus [20]): Active; Activity (HaCaT [21]): < 70%
11 | [C-]#[N+]c1ccc(NC(=O)COc2ccccc2)cc1 | 0.5 µM | ≥ 64 µM | 4 µM | 8 µM | 0.25 µM | 0.25 µM | ≥ 64 µM | 8 µM | 2 µM | 2 µM | ≥ 64 µM | MIC (Staphylococcus aureus [18]): 4 µM; Activity (Staphylococcus aureus [22]): inactive; fold change (FC) (Staphylococcus aureus [23]): >4; Activity (Staphylococcus aureus [24]): Active; Activity (HaCaT [19]): Non-Toxic; Activity (Osteoblast [25]): > 70%; Activity (Staphylococcus aureus [16]): inactive; Activity (Staphylococcus aureus [26]): 94%; Activity (Staphylococcus aureus [20]): Active; fractional inhibitory concentration index (FICI) (Staphylococcus aureus [27]): 0.75; Activity (Staphylococcus aureus [28]): 10%; Activity (Osteoblast [29]): Non-Toxic; Activity (HaCaT [21]): < 70%; Activity (Staphylococcus aureus [30]): >=99.9%
